# Test results published in US10532106B2 (priority 2014, dated 2020).
# Like-named read-outs stand apart in the source and are kept apart here. Numbered stars: 1 amine (or outer) side, 2 acyl side, 3 side chain; on linkers, the order of the positions; unused ones are H or OH. Bridge positions count the residues as written; N and C are the ends. Square brackets hold non-standard residues; d marks the D form. Peptide text beside a SMILES is read from it. Phe(4-Br) = N[C@@H](Cc1ccc(Br)cc1)C(=O)O; 1Nal = N[C@@H](Cc1cccc2ccccc12)C(=O)O; 2Nal = N[C@@H](Cc1ccc2ccccc2c1)C(=O)O; TBMB = c1c(C[*:1])cc(C[*:3])cc1C[*:2]; Tle = CC(C)(C)[C@H](N)C(=O)O; Sar = CNCC(=O)O
# Target: T1, MT1-MMP hemopexin domain (Homo sapiens, UniProt P50281)
# T1 construct: residues Cys319-Gly511 from the human gene; His6 (N); made in house; host or cells: HEK293 (transient), pEXPR-IBA42 vector
# Experiment: Competition assay using fluorescence polarisation
# Type: binding
# Settings: for Kd: read-out: Kd
# Excerpt: Here, a pre-formed complex of PEX with the fluorescent PEX-binding tracer is titrated with free, non-fluoresceinated bicyclic peptide. Since all 17-69-based peptides are expected to bind at the same site, the titrant will displace the fluorescent tracer from PEX. Dissociation of the complex can be measured quantitatively, and the Kd of the competitor (titrant) to the target protein determined. The advantage of the competition method is that the affinities of non-fluoresceinated bicyclic peptides can be determined accurately and rapidly.
# Subsequently, the non-fluorescent competitor bicyclic peptide (usually just the bicycle core sequence) is titrated, such that it displaces the fluorescent tracer from the target protein. The displacement of the tracer is measured and associated with a drop in fluorescence polarisation. The drop in fluorescence polarisation is proportional to the fraction of target protein bound with the non-fluorescent titrant, and thus is a measure of the affinity of titrant to target protein.
# The raw data is fit to the analytical solution of the cubic equation that describes the equilibria between fluorescent tracer, titrant, and binding protein. The fit requires the value of the affinity of fluorescent tracer to the target protein, which can be determined separately by direct binding FP experiments (see previous section).
# [1] = Table 8, substitutions at position 4
# [2] = Table 12, molecules selected for plasma stability assessment
compound,measurement,setting,value
"CC[C@H](C)[C@@H]1NC(=O)[C@H](CC(=O)O)NC(=O)[C@H](Cc2ccc(O)cc2)NC(=O)[C@H](Cc2ccccc2)NC(=O)[C@H](CC(=O)O)NC(=O)[C@H](CCC(=O)O)NC(=O)[C@@H]2CSCc3cc(cc(c3)CSC[C@H](NC(C)=O)C(=O)N[C@@H](Cc3ccc(O)cc3)C(=O)N[C@@H](CC(N)=O)C(=O)N[C@@H](CCC(=O)O)C(=O)N[C@@H](Cc3ccccc3)C(=O)N3CCC[C@@H]3C(=O)N2)CSC[C@@H](C(N)=O)NC1=O [17-69-07-N059, Ac-(17-69-07) D-Pro5] (Ac-CYNEF[dP]CEDFYDIC-NH2; linker 1-7-14 via TBMB)",Kd,"Table 6, D-Alanine substitutions in first loop",> 5000 nM
"CC[C@H](C)[C@@H]1NC(=O)[C@H](CC(=O)O)NC(=O)[C@H](Cc2ccc(O)cc2)NC(=O)[C@H](Cc2ccccc2)NC(=O)[C@H](CC(=O)O)NC(=O)[C@H](CCC(=O)O)NC(=O)[C@@H]2CSCc3cc(cc(c3)CSC[C@H](NC(C)=O)C(=O)N[C@@H](Cc3ccc(O)cc3)C(=O)N[C@@H](CC(N)=O)C(=O)N[C@@H](CCC(=O)O)C(=O)N[C@@H](Cc3ccccc3)C(=O)N[C@H](CCCNC(=N)N)C(=O)N2)CSC[C@@H](C(N)=O)NC1=O [17-69-07-N120, Ac-(17-69-07) D-Arg5] (Ac-CYNEF[dR]CEDFYDIC-NH2; linker 1-7-14 via TBMB)",Kd,"Table 7, substitutions at position 5",4.24 ± 1.48 nM
"CC[C@H](C)[C@@H]1NC(=O)[C@H](CC(=O)O)NC(=O)[C@H](Cc2ccc(O)cc2)NC(=O)[C@H](Cc2ccccc2)NC(=O)[C@H](CC(=O)O)NC(=O)[C@H](CCC(=O)O)NC(=O)[C@@H]2CSCc3cc(cc(c3)CSC[C@H](NC(C)=O)C(=O)N[C@@H](Cc3ccc(O)cc3)C(=O)N[C@@H](CC(N)=O)C(=O)N[C@@H](CCC(=O)O)C(=O)N[C@@H](C(C)(C)C)C(=O)NCC(=O)N2)CSC[C@@H](C(N)=O)NC1=O [17-69-07-N072, Ac-(17-69-07) tBuGly4] (Ac-CYNE[Tle]GCEDFYDIC-NH2; linker 1-7-14 via TBMB)",Kd,[1],> 5000 nM
"CC(=O)NCC(=O)N(C)CC(=O)N(C)CC(=O)N(C)CC(=O)N(C)CC(=O)N(C)CC(=O)N(C)CC(=O)N(C)CC(=O)N(C)CC(=O)N(C)CC(=O)N(C)CC(=O)N[C@@H](C)C(=O)N[C@H]1CSCc2cc3cc(c2)CSC[C@H](NC(=O)[C@@H](C)NC(=O)[C@H](Cc2cccc4ccccc24)NC(=O)[C@H](CCC(=O)O)NC(=O)[C@H](CC(N)=O)NC(=O)[C@@H](C)NC1=O)C(=O)N[C@@H](CCC(=O)O)C(=O)N[C@@H](CC(=O)O)C(=O)N[C@@H](Cc1ccccc1)C(=O)N[C@@H](Cc1ccc(Br)cc1)C(=O)N[C@@H](CC(=O)O)C(=O)N[C@@H](C(C)(C)C)C(=O)N[C@H](C(N)=O)CSC3 [17-69-07-N255, Ac-G-Sar10-A-(17-69-07) D-Ala1 1Nal4 D-Ala5 4BrPhe9 tBuGly11] (Ac-G[Sar][Sar][Sar][Sar][Sar][Sar][Sar][Sar][Sar][Sar]AC[dA]NE[1Nal][dA]CEDF[Phe(4-Br)]D[Tle]C-NH2; linker 13-19-26 via TBMB)","potency / activity toward MT1-MMP, in words",,potency which is superior to wildtype
same,Kd,"Table 11, G-Sar10-A addition",0.3 nM
"C[C@H](NC(=O)CN(C)C(=O)CN(C)C(=O)CN(C)C(=O)CN(C)C(=O)CN(C)C(=O)CN(C)C(=O)CN(C)C(=O)CN(C)C(=O)CN(C)C(=O)CN(C)C(=O)CN)C(=O)N[C@H]1CSCc2cc3cc(c2)CSC[C@H](NC(=O)[C@@H](C)NC(=O)[C@H](Cc2cccc4ccccc24)NC(=O)[C@H](CCC(=O)O)NC(=O)[C@H](CC(N)=O)NC(=O)[C@@H](C)NC1=O)C(=O)N[C@@H](CCC(=O)O)C(=O)N[C@@H](CC(=O)O)C(=O)N[C@@H](Cc1ccccc1)C(=O)N[C@@H](Cc1ccc(Br)cc1)C(=O)N[C@@H](CC(=O)O)C(=O)N[C@@H](C(C)(C)C)C(=O)N[C@H](C(N)=O)CSC3 [17-69-07-N244, G-Sar10-A-(17-69-07) D-Ala1 1Nal4 D-Ala5 4BrPhe9 tBuGly11] (H-G[Sar][Sar][Sar][Sar][Sar][Sar][Sar][Sar][Sar][Sar]AC[dA]NE[1Nal][dA]CEDF[Phe(4-Br)]D[Tle]C-NH2; linker 13-19-26 via TBMB)","potency / activity toward MT1-MMP, in words",,potency which is superior to wildtype
same,Kd,[2],0.45 ± 0.19 nM
"CC[C@H](C)[C@@H]1NC(=O)[C@H](CC(=O)O)NC(=O)[C@H](Cc2ccc(O)cc2)NC(=O)[C@H](Cc2ccccc2)NC(=O)[C@H](CC(=O)O)NC(=O)[C@H](CCC(=O)O)NC(=O)[C@@H]2CSCc3cc(cc(c3)CSC[C@H](NC(=O)[C@H](C)NC(=O)CN(C)C(=O)CN(C)C(=O)CN(C)C(=O)CN(C)C(=O)CN(C)C(=O)CN(C)C(=O)CN(C)C(=O)CN(C)C(=O)CN(C)C(=O)CN(C)C(=O)CNC(C)=O)C(=O)N[C@@H](Cc3ccc(O)cc3)C(=O)N[C@@H](CC(N)=O)C(=O)N[C@@H](CCC(=O)O)C(=O)N[C@@H](Cc3ccccc3)C(=O)NCC(=O)N2)CSC[C@@H](C(N)=O)NC1=O [17-69-07-N225, Ac-G-Sar10-A-(17-69-07)] (Ac-G[Sar][Sar][Sar][Sar][Sar][Sar][Sar][Sar][Sar][Sar]ACYNEFGCEDFYDIC-NH2; linker 13-19-26 via TBMB)",Kd,"Table 11, G-Sar10-A addition",0.95 ± 0.1 nM
"CC[C@H](C)[C@@H]1NC(=O)[C@H](CC(=O)O)NC(=O)[C@H](Cc2ccc(O)cc2)NC(=O)[C@H](Cc2ccccc2)NC(=O)[C@H](CC(=O)O)NC(=O)[C@H](CCC(=O)O)NC(=O)[C@@H]2CSCc3cc(cc(c3)CSC[C@H](NC(C)=O)C(=O)N[C@@H](Cc3ccc(O)cc3)C(=O)N[C@@H](CC(N)=O)C(=O)N[C@@H](CCC(=O)O)C(=O)N[C@@H](Cc3ccc(O)cc3)C(=O)NCC(=O)N2)CSC[C@@H](C(N)=O)NC1=O [17-69-07-N057, Ac-(17-69-07) Tyr4] (Ac-CYNEYGCEDFYDIC-NH2; linker 1-7-14 via TBMB)",Kd,[1],1.78 ± 0.45 nM
"C[C@H](NC(=O)CN(C)C(=O)CN(C)C(=O)CN(C)C(=O)CN(C)C(=O)CN(C)C(=O)CN(C)C(=O)CN(C)C(=O)CN(C)C(=O)CN(C)C(=O)CN(C)C(=O)CN)C(=O)N[C@H]1CSCc2cc3cc(c2)CSC[C@H](NC(=O)[C@@H](C)NC(=O)[C@H](Cc2cccc4ccccc24)NC(=O)[C@H](CCC(=O)O)NC(=O)[C@H](CC(N)=O)NC(=O)[C@@H](C)NC1=O)C(=O)N[C@@H](CCC(=O)O)C(=O)N[C@@H](CC(=O)O)C(=O)N[C@@H](Cc1ccccc1)C(=O)N[C@@H](Cc1ccc(O)cc1)C(=O)N[C@@H](CC(=O)O)C(=O)N[C@@H](C(C)(C)C)C(=O)N[C@H](C(N)=O)CSC3 [17-69-07-N231, G-Sar10-A-(17-69-07) D-Ala1 1Nal4 D-Ala5 tBuGly11] (H-G[Sar][Sar][Sar][Sar][Sar][Sar][Sar][Sar][Sar][Sar]AC[dA]NE[1Nal][dA]CEDFYD[Tle]C-NH2; linker 13-19-26 via TBMB)",Kd,[2],1.07 ± 0.28 nM
"CC[C@H](C)[C@@H]1NC(=O)[C@H](CC(=O)O)NC(=O)[C@H](Cc2ccc(O)cc2)NC(=O)[C@H](Cc2ccccc2)NC(=O)[C@H](CC(=O)O)NC(=O)[C@H](CCC(=O)O)NC(=O)[C@@H]2CSCc3cc(cc(c3)CSC[C@H](NC(=O)[C@H](C)NC(=O)CN3CCN(CC(=O)O)CCN(CC(=O)O)CCN(CC(=O)O)CC3)C(=O)N[C@@H](Cc3ccc(O)cc3)C(=O)N[C@@H](CC(N)=O)C(=O)N[C@@H](CCC(=O)O)C(=O)N[C@@H](Cc3ccccc3)C(=O)NCC(=O)N2)CSC[C@@H](C(N)=O)NC1=O [17-69-07-N144, DOTA-A-(17-69-07)]","potency / activity toward MT1-MMP, in words",,retains full potency to MT1-MMP
same,Kd,"Table 15, DOTA-linked peptides",0.5 nM
"CC[C@H](C)[C@@H]1NC(=O)[C@H](CC(=O)O)NC(=O)[C@H](Cc2ccc(O)cc2)NC(=O)[C@H](Cc2ccccc2)NC(=O)[C@H](CC(=O)O)NC(=O)[C@H](CCC(=O)O)NC(=O)[C@@H]2CSCc3cc(cc(c3)CSC[C@H](NC(=O)[C@H](C)NC(=O)CN3CCN(CC(=O)O)CCN(CC(=O)O)CCN(CC(=O)O)CC3)C(=O)N[C@@H](Cc3ccc(O)cc3)C(=O)N[C@@H](CC(N)=O)C(=O)N[C@@H](CCC(=O)O)C(=O)N[C@@H](Cc3ccccc3)C(=O)NCC(=O)N2)CSC[C@@H](C(N)=O)NC1=O [17-69-07-N147, DOTA[Lu]-A-(17-69-07)]",Kd,"Table 15, DOTA-linked peptides",0.95 ± 0.5 nM
"CC[C@H](C)[C@@H]1NC(=O)[C@H](CC(=O)O)NC(=O)[C@H](Cc2ccc(O)cc2)NC(=O)[C@H](Cc2ccccc2)NC(=O)[C@H](CC(=O)O)NC(=O)[C@H](CCC(=O)O)NC(=O)[C@@H]2CSCc3cc(cc(c3)CSC[C@@H](C(=O)N[C@@H](C)C(N)=O)NC1=O)CSC[C@H](NC(=O)[C@H](C)N)C(=O)N[C@@H](Cc1ccc(O)cc1)C(=O)N[C@@H](CC(N)=O)C(=O)N[C@@H](CCC(=O)O)C(=O)N[C@@H](Cc1ccccc1)C(=O)NCC(=O)N2 [17-69-07-N001, A-(17-69-07)-A]",Kd,"Table 3, Competition, tracer A-(17-69-12)-A-Sar6-K(Fluorescein)",1.65 ± 0.29 nM
"CC[C@H](C)[C@@H]1NC(=O)[C@H](CC(=O)O)NC(=O)[C@H](Cc2ccc(O)cc2)NC(=O)[C@H](Cc2ccccc2)NC(=O)[C@H](CC(=O)O)NC(=O)[C@H](CCC(=O)O)NC(=O)[C@@H]2CSCc3cc(cc(c3)CSC[C@H](NC(C)=O)C(=O)N[C@@H](Cc3ccc(O)cc3)C(=O)N[C@@H](CC(N)=O)C(=O)N[C@@H](CCC(=O)O)C(=O)N[C@@H](Cc3ccc4ccccc4c3)C(=O)NCC(=O)N2)CSC[C@@H](C(N)=O)NC1=O [17-69-07-N068, Ac-(17-69-07) 2NAl4] (Ac-CYNE[2Nal]GCEDFYDIC-NH2; linker 1-7-14 via TBMB)",Kd,[1],0.7 ± 0.19 nM
